# Columns and labels:
# [1] = Adverse events and hypoglycaemia in the 12-week add-on to metformin study; format: in vivo, human; settings: 1, 5 or 10 mg qd with metformin, 12 weeks
# Source text: In total, 106 patients (43.1%) experienced adverse events (AEs) with similar incidences across all treatments. Most frequently reported episodes were nasopharyngitis (7.5%), diarrhoea (3.3%), and nausea (3.0%). […] Ten patients (3.7%) experienced serious AEs but none of these events were considered drug-related.
# The addition of BI 1356 to MET in patients with T2DM inadequately controlled on MET alone achieved clinically relevant and statistically significant reductions in HbA1c.
# [2] = Thorough QT study, single dose, healthy female and male subjects (QTcI); format: in vivo, human; settings: therapeutic (5 mg) and supratherapeutic (100 mg)
# Method: A thorough QT study of BI 1356, a potent and selective dipeptidyl peptidase-4 inhibitor, was performed in healthy female and male subjects, using 5 mg (therapeutic dose) and 100 mg. The study was a randomised, single-dose, placebo-controlled, double-blind, four-way crossover study with open-label moxifloxacin (400 mg) as positive control. Triplicate 12-lead electrocardiograms (ECGs) of 10 seconds' duration were recorded for all subjects pre-dose and at various time points over a 24-h period after each treatment. The primary parameter was the subject-specific heart rate corrected QT interval (QTcI).
# [3] = 12-week randomized double-blind add-on to metformin study: HbA1c and FPG; parameters: placebo corrected mean reduction in HbA1c: dose or concentration left out as unconfirmed
# Method: Effects were compared to add-on of placebo (PBO) or of open label glimepiride (GLIM; 1 to 3 mg qd) in a 12-week randomized, double-blind study.
# The primary endpoint was change from baseline in HbA1c, adjusted for prior antidiabetic medication.
# [4] = human, in vivo
# [5] = 5 mg daily, 12 weeks, add-on to metformin
compound,measurement,setting,value
CC#CCn1c(N2CCC[C@@H](N)C2)nc2c1c(=O)n(Cc1nc(C)c3ccccc3n1)c(=O)n2C [BI 1356],drug-related hypoglycaemia,[1],no case of hypoglycaemia was reported
same,prolongation of the QT interval,[2],did not prolong the QT interval
same,percentage of patients achieving HbA1c lowering of ≧0.5% from baseline,[3]; [5],53.2%
same,percentage of patients achieving HbA1c lowering of ≧1.0% from baseline,[3]; [5],27.4%
same,percentage of patients achieving a HbA1c value,[3]; [5],14.5%
same,time at which maximum glucose-lowering effects are reached,"[3]; 1, 5 and 10 mg once daily added to metformin, plateau thereafter",8 weeks
same,form and path of excretion,[4],primarily excreted unchanged via the bile
"CCC1=C(C)CN(C(=O)NCCc2ccc(S(=O)(=O)NC(=O)N[C@H]3CC[C@H](C)CC3)cc2)C1=O [GLIM, glimepiride, reference compound]",placebo corrected mean reduction in HbA1c,"[3]; Week 12, add-on to metformin, n=64",−0.90%
